In publication PMC11091967, “Silicon-Rhodamine Functionalized Evocalcet Probes Potently and Selectively Label Calcium Sensing Receptors In Vitro, In Vivo, and Ex Vivo” (ACS Pharmacology & Translational Science, 2024):

How the values were obtained:
[1] = test system: human parathyroid adenomas; assay: Ex vivo labeling of surgically resected human parathyroid adenomas
Method: The part of the study involving human tissues has been registered at clinicaltirals.gov and can be retrieved under the ID: NCT03831620. The study was approved by the ethics commission of canton Bern, Switzerland (KEKBE 2018–02218). Written informed consent was obtained from all patients. Human parathyroid tissues were surgically resected and were immediately put on dry ice and stored at −80 °C. The tissues were thawed at 4 °C and were washed with PBS thoroughly. The labeling of the tissues was achieved using 500 nM EvoSiR4 for 30 min in PBS containing 0.1% BSA. After labeling, the tissues were washed twice with PBS containing 0.1% BSA. For evocalcet competition experiments, the tissues were coincubated with EvoSiR4 and evocalcet in a 1:5 molar ratio for 30 min and then washed twice with PBS containing 0.1% BSA. The images were acquired using an IVIS Spectrum in vivo imaging system with a λex of 780 nm and λem of 840 nm for the autofluorescence (ICG channel) and with a λex of 650 nm and λem of 670 nm for the EvoSiR label (Cy5 channel).

[2] = test system: zebrafish larvae; assay: Zebrafish startle reflex, tolerability and brain penetration with bath-applied probe; assay type: in vivo, zebrafish (Danio rerio)
Method: For the neuromast labeling experiments, wild-type 4–6 days post fertilization (dpf) zebrafish larvae were incubated in 200 μL of E3 medium containing different doses of the SiR probes (500–5000 nM), 2.5 μM 4-(4-diethylaminostyryl)-1-methyl-pyridinium-iodid (DiAsp, Sigma, D3418), which specifically labels hair cells in the lateral line in 0.5% DMSO for 30 min (35). Next, washing and anesthesia were achieved by placing the larvae in a 35 mm imaging dish (MolBiTec, Imaging dish 1.5) which contained 500 μL of E3 medium with 168 mg/L MS-222 (Tricaine Mehanesulfonate, Sigma) for 10 min. After removing the solution, fish were side-embedded in the imaging dish using 500 μL of 0.75% low-melting temperature agarose (Sigma, A4018). Wide-field imaging was done using the Zeiss Axio Observer fluorescence microscope (LD A-Plan 10× objective, NA = 0.25), and confocal imaging was done using a Zeiss LSM 800 confocal fluorescence microscope (LD LCI Plan-Apochromat 25× objective, NA = 0.8).
For the behavioral analysis, wild-type 4–6 dpf zebrafish larvae were placed individually into custom-built sound delivery system described in a previous publication.[36] For acoustic stimulation, we used a 90 dB stimulus and recorded the subsequent behavioral responses using a high-speed camera (xiQ USB3 vision) at a frame rate of 500 fps using custom scripts written in Python. The camera was placed 30 cm above the sound delivery system. The latency of the startle reflex was quantified manually by using an LED flash (780 nm wavelength) in parallel with the time of stimulus delivery. Escape responses were quantified manually, where we considered a short-latency startle response between 2 and 16 ms and a long-latency startle response above 16 ms.

[3] = biological target: T1, human CaSR (Homo sapiens, UniProt P41180); assay: FLIPR-based functional CaSR calcium assay in HCAR cells; assay type: cell-based; details: 5 min incubation of HCAR cells, 0.1% BSA
T1 construct: host or cells: CCL39 hamster lung fibroblasts stably transfected (HCAR), Geneticin selection
T1 sequence (P41180 20-1078): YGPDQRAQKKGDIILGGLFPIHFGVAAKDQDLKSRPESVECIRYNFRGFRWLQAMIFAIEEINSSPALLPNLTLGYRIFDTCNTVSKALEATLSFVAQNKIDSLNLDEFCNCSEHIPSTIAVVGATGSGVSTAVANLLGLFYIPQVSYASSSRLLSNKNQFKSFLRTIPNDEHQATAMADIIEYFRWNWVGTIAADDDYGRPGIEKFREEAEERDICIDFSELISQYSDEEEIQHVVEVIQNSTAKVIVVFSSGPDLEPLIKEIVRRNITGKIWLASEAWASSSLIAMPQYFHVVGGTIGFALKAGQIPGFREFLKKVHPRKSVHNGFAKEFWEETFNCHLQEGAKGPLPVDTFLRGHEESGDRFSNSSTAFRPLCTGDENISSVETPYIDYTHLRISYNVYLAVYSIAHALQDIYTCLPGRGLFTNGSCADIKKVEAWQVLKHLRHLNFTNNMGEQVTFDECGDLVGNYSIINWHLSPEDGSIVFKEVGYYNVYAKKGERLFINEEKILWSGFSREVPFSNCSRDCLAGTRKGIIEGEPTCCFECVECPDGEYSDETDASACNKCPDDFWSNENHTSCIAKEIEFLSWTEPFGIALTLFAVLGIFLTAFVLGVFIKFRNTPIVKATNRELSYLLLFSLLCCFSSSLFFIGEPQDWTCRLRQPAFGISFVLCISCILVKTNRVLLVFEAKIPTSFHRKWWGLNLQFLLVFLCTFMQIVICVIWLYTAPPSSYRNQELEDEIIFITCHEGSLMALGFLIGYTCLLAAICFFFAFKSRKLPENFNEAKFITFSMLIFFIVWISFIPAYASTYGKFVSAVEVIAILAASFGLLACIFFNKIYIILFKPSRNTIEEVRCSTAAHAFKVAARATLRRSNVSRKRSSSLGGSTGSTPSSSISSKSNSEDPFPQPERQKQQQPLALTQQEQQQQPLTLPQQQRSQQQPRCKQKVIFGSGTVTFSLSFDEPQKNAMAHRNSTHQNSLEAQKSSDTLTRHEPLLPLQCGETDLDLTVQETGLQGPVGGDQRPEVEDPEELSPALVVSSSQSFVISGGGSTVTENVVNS

[4] = Photophysical characterization; assay type: physicochemical; design: λex / λem: unit not given here; details: for quantum yield Φ: 94% ethanol, 750 nM, relative to Rhodamine B; for λem / λex: Table 1; for extinction coefficient ε: absorbance at 150–1350 nM, 1 cm cuvette
[5] = Spectrofluorometric fluorescence in PBS and effect of pH; assay type: physicochemical; details: 750 nM in PBS, peak fluorescence at 670
Method: Spectrofluorometric measurements were carried out by using the Agilent Cary Eclipse instrument. The voltage of the photomultiplier tube (PMT) was set to 600 for EvoSiR4 and EvoSiR6, and for 500 for SiR (4). Fluorescence of the probes was measured at concentrations ranging from 30 to 3000 nM in PBS containing various amounts of bovine serum albumin (BSA) (Sigma, A7906). Quenching experiments for the calculation of BSA binding were performed by adding a 1:1 molar ratio of tannic acid dissolved in ddH2O (Sigma, 403040) to the solution prior to measuring fluorescence.

[6] = test system: CYP2D6; design: method as in PMID 29724589; details: cited from earlier work

SMILES: Cc1cc(C(=O)NCCCCNC(=O)Cc2ccc(N3CC[C@H](N[C@H](C)c4cccc5ccccc45)C3)cc2)ccc1C1=C2C=CC(=[N+](C)C)C=C2[Si](C)(C)c2cc(N(C)C)ccc21 [EvoSiR4]
- concentration above which marked increase in tissue fluorescence ([1]; 650 nm excitation): > 500 nM
- effect on startle responses (percentage elicited, ratio of short-latency escapes, latency) ([2]; bath-applied 5 and 10 μM, acoustic stimulation): no significant difference
- entry into zebrafish CNS ([2]; bath-applied, Tol056 strain, confocal microscopy): does not enter the zebrafish CNS
- concentration beyond which lethal ([2]; bath-applied, larvae): > 20 µM
- concentration up to which no effect on basic locomotion capabilities ([2]; bath-applied, larvae): up to 10 μM
- EC50 ([3]; EC50, 1× wash, 1× wash): 380 ± 240 nM
- EC50 ([3]; EC50, 3× wash, 3× wash): 620 ± 310 nM
- EC50 ([3]; EC50, 5× wash, 5× wash): 330 ± 210 nM
- EC50 ([3]; EC50, no wash, no wash): 37 ± 8 nM
- fluorescence lifetime τ [4]: 2.43 ± 0.164 ns
- quantum yield Φ [4]: 0.288
- λem [4]: 670
- λex [4]: 650
- extinction coefficient ε [4]: 14,175 M^–1 cm^–1
- decrease in fluorescence at pH above 10 [5]: 50%

SMILES: Cc1cc(C(=O)NCCCCCCNC(=O)Cc2ccc(N3CC[C@H](N[C@H](C)c4cccc5ccccc45)C3)cc2)ccc1C1=C2C=CC(=[N+](C)C)C=C2[Si](C)(C)c2cc(N(C)C)ccc21 [EvoSiR6]
- fluorescence lifetime τ [4]: 2.33 ± 0.135 ns
- quantum yield Φ [4]: 0.278
- λem [4]: 670
- λex [4]: 650
- extinction coefficient ε [4]: 16,601 M^–1 cm^–1

SMILES: C[C@@H](N[C@H]1CCN(c2ccc(CC(=O)O)cc2)C1)c1cccc2ccccc12 [evocalcet]
- decrease in tissue fluorescence upon evocalcet competition ([1]; 500 nM EvoSiR4 co-administered with 2.5 μM evocalcet): 64%
- CYP2D6 inhibition [6]: no direct CYP2D6 inhibition
